The source of these data is patent US10703746B2, “Mutant IDH1 inhibitors useful for treating cancer” (THE UNITED STATES OF AMERICA, AS REPRESENTED BY THE …, priority 2014, dated 2020).

For assay [1], the target named is IDH1 R132C (Homo sapiens, UniProt O75874, R132C). Briefly: IDH1 R132C enzymatic assay (NADPH depletion coupled to diaphorase/resazurin). The settings on record: IDH1 R132C enzymatic inhibition, IC50 class. It is filed as biochemical. Summed up:
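NADPH depletion, read via diaphorase/resazurin coupling, after adding substrate at 0.6 mM α-KG and 0.012 mM NADPH. Beforehand, 0.00032 mg/mL enzyme sat with compound 30 min at room temperature in pH 6.5 potassium phosphate buffer with MgCl2, glycerol and BSA.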
A general note: Resazurin is reduced to fluorescent resorufin, in cell work by metabolically active cells.

Assay [2] concerns the target IDH1 R132H (Homo sapiens, UniProt O75874, R132H). As to the kind of experiment: IDH1 R132H enzymatic assay (NADPH depletion coupled to diaphorase/resazurin). Particulars: IDH1 R132H enzymatic inhibition, IC50 class. It is filed as biochemical.

Chain of IDH1 R132H (O75874 whole entry R132H): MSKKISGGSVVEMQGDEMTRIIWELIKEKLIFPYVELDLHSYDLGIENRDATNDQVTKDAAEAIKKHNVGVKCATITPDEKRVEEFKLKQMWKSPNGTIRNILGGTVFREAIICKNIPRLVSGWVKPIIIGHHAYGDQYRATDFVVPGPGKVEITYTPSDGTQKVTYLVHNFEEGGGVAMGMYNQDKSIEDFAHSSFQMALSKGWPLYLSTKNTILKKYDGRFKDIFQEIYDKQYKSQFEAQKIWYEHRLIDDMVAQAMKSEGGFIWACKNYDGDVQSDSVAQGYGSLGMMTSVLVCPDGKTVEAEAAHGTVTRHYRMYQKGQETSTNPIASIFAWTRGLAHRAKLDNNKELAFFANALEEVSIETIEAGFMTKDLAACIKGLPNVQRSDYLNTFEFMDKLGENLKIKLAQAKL
Chain of IDH1 R132C (O75874 whole entry R132C): as the sequence (O75874 whole entry R132H) above, with H132C counted along it

`CCc1cccc(CC)c1-n1c(CC(C)C)c(C(=O)N2CCNCC2)cc(-c2nc(-c3ccc(Cl)cc3F)c(C)s2)c1=O` [Compound 632]: the IC50 in assay [1] and in assay [2] was 300 to 1000 nM throughout.

On to `CCc1cccc(CC)c1-n1c(CC(C)C)c(C(=O)N2CCNCC2)cc(-c2nc(-c3ccc(Cl)c(OC)c3)c(C)s2)c1=O` [Compound 633], for which the IC50 in assay [1] and in assay [2] was 300 to 1000 nM throughout.

Turning to `O=C1CCCc2c1cc(-c1nc(-c3ccc(Cl)cc3)cs1)c(=O)n2-c1ccccc1CO` [Compound 634], the IC50 (commonly the concentration that gives 50% inhibition) in assay [1] is 5000 to 20000 nM; in assay [2], more than 20000 nM.

In the case of `CCc1cccc(CC)c1-n1c(C=C(C)C)c(C(=O)N2CCCNC(=O)C2)cc(-c2ccn(-c3ccc(Cl)cc3)n2)c1=O` [Compound 635], the IC50 in assay [1] and in assay [2] was less than 300 nM in each case.

On to `CCc1ncc(OC)cc1-n1c(C=C(C)C)c(C(=O)N2CCNCC2)cc(-c2nc(-c3ccc(C(F)(F)F)cc3)cs2)c1=O` [Compound 636], for which the IC50 in assay [1] and in assay [2] was less than 300 nM throughout.

On to `CCc1cccc(CC)c1-n1c(CC(C)C)c(C(=O)N2CCNCC2)cc(-c2nc(-c3ccc(Cl)cc3Cl)c(C)s2)c1=O` [Compound 637], for which the IC50 in assay [1] and in assay [2] was 300 to 1000 nM throughout.

With `CCc1cccc(CC)c1-n1c(C=C(C)C)c(C(=O)N2CCNCC2)cc(-c2nn(-c3ccc(Cl)cc3)cc2C)c1=O` [Compound 638], the results for the IC50 in assay [1] and in assay [2] were 1000 to 5000 nM and less than 300 nM, respectively.

`CCOc1ncc(C)cc1-n1c(C=C(C)C)c(C(=O)N2CCNCC2)cc(-c2nc(-c3ccc(C(F)(F)F)nc3)cs2)c1=O` [Compound 639]: the IC50 in assay [1] was 300 to 1000 nM; in assay [2], less than 300 nM.

Turning to `CCc1cccc(CC)c1-n1c(CC(C)C)c(C(=O)N2CCNCC2)cc(-c2ccn(-c3ccc(C(F)(F)F)cc3)n2)c1=O` [Compound 640], the IC50 in assay [1] and in assay [2] was less than 300 nM throughout.

Regarding `CCc1cccc(CC)c1-n1c(C=C(C)C)c(C(=O)N2CCN[C@@H](C(=O)O)C2)cc(-c2nc(-c3ccc(C(F)(F)F)cc3)cs2)c1=O` [Compound 641], the IC50 in assay [1] and in assay [2] was less than 300 nM each time.

Regarding `CCc1cccc(OC)c1-n1c(C=C(C)C)c(C(=O)N2CCNCC2)cc(-c2nc(-c3ccc(Cl)cc3)cs2)c1=O` [Compound 642], the IC50 in assay [1] and in assay [2] was less than 300 nM throughout.

Turning to `CCc1cccc(CC)c1-n1c(CC(C)C)c(C(=O)N2CCNCC2)cc(-c2coc(-c3ccc(Cl)cc3)n2)c1=O` [Compound 643], the IC50 in assay [1] and in assay [2] was 300 to 1000 nM throughout.

As to `COc1ccccc1-n1c(C=C(C)C)c(C(=O)N2CCNCC2)cc(-c2nc(-c3ccc(Cl)cc3)cs2)c1=O` [Compound 644], the IC50 in assay [1] was 300 to 1000 nM; in assay [2], less than 300 nM.

As to `CN1CCN(c2ccc(C(F)(F)F)c(-n3c4c(cc(-c5nc(-c6ccc(Cl)cc6)cs5)c3=O)C(=O)CC(C)(C)C4)c2)CC1` [Compound 645], the IC50 in assay [1] and in assay [2] was 1000 to 5000 nM throughout.

For the compound `CCc1cccc(CC)c1-n1c(C=C(C)C)c(C(=O)N2CCNC(C)C2C)cc(-c2nc(-c3ccc(Cl)cc3)cs2)c1=O` (stereo not drawn) [Compound 646], the IC50 in assay [1] and in assay [2] was less than 300 nM in each case.

`CCCC1CNCCN1C(=O)c1cc(-c2nc(-c3ccc(Cl)cc3)cs2)c(=O)n(-c2c(CC)cccc2CC)c1C=C(C)C` (stereo not drawn) [Compound 648]: the IC50 in assay [1] was less than 300 nM; in assay [2] it was 300 to 1000 nM.

As for `O=C1CCCc2c1cc(-c1nc(-c3ccc(Cl)cc3)cs1)c(=O)n2-c1ccc(CO)cc1` [Compound 649], the IC50 in assay [1] and in assay [2] was more than 20000 nM throughout.

Take `CCc1cccc(CC)c1-n1c(C=C(C)C)c(C(=O)N2CCNC(=O)C2(C)C)cc(-c2nc(-c3ccc(Cl)cc3)cs2)c1=O` [Compound 650]: the IC50 in assay [1] and in assay [2] was less than 300 nM throughout.

Take `Cc1ccc(CO)cc1-n1c2c(cc(-c3nc(-c4ccc(Cl)cc4)cs3)c1=O)C(=O)CCC2` [Compound 651]: the IC50 in assay [1] and in assay [2] was 1000 to 5000 nM throughout.

In the case of `COC(=O)c1ccsc1-n1c2c(cc(-c3nc(-c4ccc(Cl)cc4)cs3)c1=O)C(=O)CC(C)(C)C2` [Compound 652], the IC50 in assay [1] and in assay [2] was 300 to 1000 nM each time.

For the compound `CCc1cccc(CC)c1-n1c(C=C(C)C)c(C(=O)N2CCNC(C(N)=O)C2)cc(-c2ccn(-c3ccc(Cl)cc3)n2)c1=O` (stereo not drawn) [Compound 653], the IC50 in assay [1] and in assay [2] was less than 300 nM throughout.

Take `CCc1cccc(CC)c1-n1c(CC(C)C)c(C(=O)N2CCNCC2)cc(-c2nc(-c3ccc(C(F)(F)F)cc3)cs2)c1=O` [Compound 654]: the IC50 in assay [1] and in assay [2] was less than 300 nM throughout.

As to `CCc1cccc(F)c1-n1c(C=C(C)C)c(C(=O)N2CCNCC2)cc(-c2nc(-c3ccc(Cl)cc3)cs2)c1=O` [Compound 655], the IC50 in assay [1] and in assay [2] was less than 300 nM in each case.

In the case of `CCc1ccc(C)cc1-n1c(C=C(C)C)c(C(=O)N2CCNCC2)cc(-c2nc(-c3ccc(Cl)cc3)cs2)c1=O` [Compound 656], the IC50 in assay [1] and in assay [2] was less than 300 nM throughout.

Take `CCc1cccc(CC)c1-n1c(C=C(C)C)c(C(=O)N2CCNC(C#N)C2)cc(-c2nc(-c3ccc(Cl)cc3)cs2)c1=O` (stereo not drawn) [Compound 657]: the IC50 in assay [1] and in assay [2] was less than 300 nM each time.

With `CCc1cccc(CC)c1-n1c(CC(C)C)c(C(=O)N2CCNCC2)cc(-n2cc(-c3ccc(Cl)cc3)cn2)c1=O` [Compound 658], the IC50 in assay [1] and in assay [2] was 5000 to 20000 nM in each case.

On to `CCc1cccc(CC)c1-n1c(C=C(C)C)c(C(=O)N2CCC3(CCNC3)C2)cc(-c2nc(-c3ccc(Cl)cc3)cs2)c1=O` (stereo not drawn) [Compound 659], for which the values for the IC50 in assay [1] and in assay [2] were less than 300 nM and 300 to 1000 nM, respectively.

For the compound `CCc1cccc(CC)c1-n1c(C=C(C)C)c(C(=O)N2C(C)CNCC2C(=O)O)cc(-c2nc(-c3ccc(Cl)cc3)cs2)c1=O` (stereo not drawn) [Compound 660], the IC50 in assay [1] and in assay [2] was less than 300 nM each time.

On to `COc1ncccc1-n1c2c(cc(-c3nc(-c4ccc(Cl)cc4)cs3)c1=O)C(=O)CC(C)(C)C2` [Compound 661], for which the IC50 in assay [1] lay in the range of 300 to 1000 nM; in assay [2] it was 1000 to 5000 nM.

In the case of `CCc1cccc(CC)c1-n1c(CC(C)C)c(C(=O)N2CCNCC2)cc(-c2nc(-c3ccc(Cl)cc3)c(Cl)s2)c1=O` [Compound 662], the IC50 in assay [1] was less than 300 nM; in assay [2] it was 300 to 1000 nM.

As for `COc1ccc(-n2c3c(cc(-c4nc(-c5ccc(Cl)cc5)cs4)c2=O)C(=O)CC(C)(C)C3)c(Cl)c1` [Compound 663], the IC50 was 1000 to 5000 nM in assay [1] and more than 20000 nM in assay [2].

`CCc1cccc(CC)c1-n1c(C(C)(C)F)c(C(=O)N2CCNCC2)cc(-c2nc(-c3ccc(Cl)cc3)cs2)c1=O` [Compound 664]: the half-inhibitory concentration (IC50) in assay [1] and in assay [2] was 300 to 1000 nM in each case.

As for `CCOc1ccc(Cl)cc1-n1c(C=C(C)C)c(C(=O)N2CCNCC2)cc(-c2nc(-c3ccc(C(F)(F)F)cc3)cs2)c1=O` [Compound 665], the IC50 in assay [1] and in assay [2] was less than 300 nM throughout.

`CCc1ccc(Cl)c(CC)c1-n1c(C=C(C)C)c(C(=O)N2CCNCC2)cc(-c2nc(-c3ccc(Cl)cc3)cs2)c1=O` [Compound 666]: the IC50 in assay [1] and in assay [2] was less than 300 nM in each case.

As for `COc1ncc(C)cc1-n1c(C=C(C)C)c(C(=O)N2CCNCC2)cc(-c2nc(-c3ccc(Cl)cc3)cs2)c1=O` [Compound 667], the IC50 in assay [1] and in assay [2] was less than 300 nM in each case.

Turning to `COc1cccc(F)c1-n1c2c(cc(-c3nc(-c4ccc(Cl)cc4)cs3)c1=O)C(=O)CC(C)(C)C2` [Compound 668], the IC50 in assay [1] and in assay [2] was 1000 to 5000 nM throughout.

Regarding `COc1ccc(F)cc1-n1c2c(cc(-c3nc(-c4ccc(Cl)cc4)cs3)c1=O)C(=O)CC(C)(C)C2` [Compound 669], the IC50 in assay [1] and in assay [2] was 300 to 1000 nM in each case.

Turning to `CCc1cccc(CC)c1-n1c(C2CCNCC2)c(C(=O)N2CCNCC2)cc(-c2nc(-c3ccc(Cl)cc3)cs2)c1=O` [Compound 670], the concentration for half-maximal inhibition (IC50) is more than 20000 nM in assay [1] and 5000 to 20000 nM in assay [2].

With `CCOc1ccc(C)cc1-n1c(CC(C)C)c(C(=O)N2CCNCC2)cc(-c2nc(-c3ccc(C(F)F)cc3)cs2)c1=O` [Compound 685], the half-inhibitory concentration (IC50) in assay [1] and in assay [2] was less than 300 nM in each case.

With `CCOc1ccc(F)cc1-n1c(CC(C)C)c(C(=O)N2CCNCC2)cc(-c2nc(-c3ccc(C(F)F)cc3)cs2)c1=O` [Compound 686], the IC50 in assay [1] and in assay [2] was 300 to 1000 nM throughout.

`CCOc1ccc(Cl)cc1-n1c(CC(C)C)c(C(=O)N2CCNCC2)cc(-c2nc(-c3ccc(C(F)F)cc3)cs2)c1=O` [Compound 687]: the IC50 in assay [1] and in assay [2] was 300 to 1000 nM each time.

In the case of `CCOc1ccc(OCC)c(-n2c3c(cc(-c4nc(-c5ccc(Cl)cc5)cs4)c2=O)C(=O)CC(C)(C)C3)c1` [Compound 828], the IC50 in assay [1] was less than 300 nM; in assay [2] it was 300 to 1000 nM.
